According to patent US6642392B1 (priority 1997, dated 2003):
Read-outs that look alike come from different tables or passages of the source.

Columns and labels:
Format in all cases: in vivo
Puccinia recondita = assay: Test B: wheat leaf rust, preventive spray on wheat seedlings; conditions: for Test B disease control rating (100 = 100% disease control, 0 = no disease control): wheat seedlings sprayed to run-off, inoculated the following day, rating relative to controls, unmarked compounds (standard test rate); for Test B disease control rating: wheat leaf rust
How it was run: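 Preventive test: P. recondita spores were applied one day after a run-off spray of compound suspension on wheat seedlings. Plants had 24 h at 20 °C in saturated air plus 6 days in a 20 °C growth chamber. Scoring is % disease control (100 = full) relative to controls.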

Pyricularia oryzae = conditions: for Test C disease control rating (100 = 100% disease control, 0 = no disease control): rice seedlings sprayed to run-off, inoculated the following day, rating relative to controls, unmarked compounds (standard test rate); for Test C disease control rating: rice blast
Botrytis cinerea = assay: Test E: gray mold, preventive spray on cucumber seedlings; conditions: for Test E disease control rating (100 = 100% disease control, 0 = no disease control): cucumber seedlings sprayed to run-off, inoculated the following day, rating relative to controls, unmarked compounds (standard test rate); for Test E disease control rating: gray mold on cucumber
How it was run: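 Preventive spray on cucumber seedlings used a suspension (3% acetone, 250 ppm Trem 014), applied to run-off one day before inoculation with Botrytis cinerea spores. Plants were held 48 h at 20° C in saturated air, then 5 days at 20° C. Percent disease control was scored relative to untreated plants.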

[1] = system: Eiysiphe graminis f. sp. tritici; assay: Test A: wheat powdery mildew, preventive spray on wheat seedlings; conditions: for Test A disease control rating (100 = 100% disease control, 0 = no disease control): wheat seedlings sprayed to run-off, inoculated the following day, rating relative to controls, unmarked compounds (standard test rate); for Test A disease control rating: wheat powdery mildew
How it was run: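 Preventive test: seedlings inoculated with powdery mildew spores one day after run-off spraying of a suspension. Ratings after 7 days in a 20° C growth chamber express percent disease control versus controls.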

Phytophthora infestans = conditions: for Test D disease control rating (100 = 100% disease control, 0 = no disease control): tomato seedlings sprayed to run-off, inoculated the following day, rating relative to controls, unmarked compounds (standard test rate); for Test D disease control rating: tomato late blight
[2] = 100 = 100% disease control, 0 = no control, unmarked entries (standard test concentration)
[3] = 100 = 100% disease control, 0 = no control relative to controls, unmarked entries (standard test concentration)

Row | SMILES | Test B disease control rating (Puccinia recondita; [2]) [%] | Test C disease control rating (Pyricularia oryzae; [2]) [%] | Test E disease control rating (Botrytis cinerea; [2]) [%] | Test A disease control rating [1, 3] [%] | Test D disease control rating (Phytophthora infestans; [2]) [%] | other results
1 | CCC1(C(=O)NC(C)COc2cc(Br)ccc2C#N)C(C)C1(Cl)Cl (stereo not shown) [compound 246] |  |  |  |  |  | Test B disease control rating (100 = 100% disease control, 0 = no disease control) (Puccinia recondita): 0%; Test C disease control rating (100 = 100% disease control, 0 = no disease control) (Pyricularia oryzae): 97%; Test E disease control rating (100 = 100% disease control, 0 = no disease control) (Botrytis cinerea): 0%; Test A disease control rating (100 = 100% disease control, 0 = no disease control) [1]: 53%; Test D disease control rating (100 = 100% disease control, 0 = no disease control) (Phytophthora infestans): 0%
2 | C[C@H](COc1ccc(Cl)cc1F)NC(=O)C(C#N)C(C)(C)C (single isomer, unassigned) [36b] | 27 | 100 | 0 | 62 | 80 | 
3 | C[C@H](COc1ccc(Cl)cc1Cl)NC(=O)C(C#N)C(C)(C)C (single isomer, unassigned) [32b] | 27 | 94 | 0 | 0 | 23 | 
4 | CCC1(C(=O)NC(C)COc2cccc(F)c2F)C(C)C1(Cl)Cl (stereo not shown) [compound 104] |  |  |  |  |  | Test B disease control rating (Puccinia recondita; tested at 40 ppm): 0%; Test C disease control rating (Pyricularia oryzae; tested at 40 ppm): 97%; Test E disease control rating (Botrytis cinerea; tested at 40 ppm): 0%; Test A disease control rating ([1]; tested at 40 ppm): 84%; Test D disease control rating (Phytophthora infestans; tested at 40 ppm): 0%
5 | CCC1(C(=O)NC(C)COc2cc(F)cc(F)c2C#N)C(C)C1(Cl)Cl (mixture of isomers) [compound 135] | 0 | 53 | 0 | 0 | 2 | 
6 | C[C@H](COc1cccc(Cl)c1)NC(=O)C(C#N)C(C)(C)C (single isomer, unassigned) [6d] | 28 | 97 | 0 | 77 | 0 | 
7 | CCC1(C(=O)NC(C)COc2cccc(I)c2C#N)C(C)C1(Cl)Cl (mixture of isomers) [compound 132] | 0 | 0 | 0 | 0 | 2 | 
8 | C[C@H](COc1ccc(Cl)c(Cl)c1)NC(=O)C(C#N)C(C)(C)C (single isomer, unassigned) [181b] | 0 | 74 | 90 | 37 | 0 | 
9 | CCC1(C(=O)NC(C)COc2ccc(Cl)c(Cl)c2)C(C)C1(Cl)Cl (stereo not shown) [compound 230] |  |  |  |  |  | Test B disease control rating (100 = 100% disease control, 0 = no disease control) (Puccinia recondita): 0%; Test C disease control rating (100 = 100% disease control, 0 = no disease control) (Pyricularia oryzae): 53%; Test E disease control rating (100 = 100% disease control, 0 = no disease control) (Botrytis cinerea): 45%; Test A disease control rating (100 = 100% disease control, 0 = no disease control) [1]: 0%; Test D disease control rating (100 = 100% disease control, 0 = no disease control) (Phytophthora infestans): 0%
10 | CC(COc1ccccc1SC(F)(F)C(F)F)NC(=O)C(C#N)C(C)(C)C (mixture of isomers) [compound 202] | 0 | 53 | 0 | 0 | 0 | 
11 | CC(C)(C)C(C#N)C(=O)NC/C=C/c1ccccc1 (racemic) [compound 167] | 0 | 74 | 0 | 0 | 23 | 
12 | CCC1(C(=O)NCC=Cc2ccccc2)C(C)C1(Cl)Cl (stereo not shown) [compound 156] |  |  |  |  |  | Test B disease control rating (Puccinia recondita; tested at 40 ppm): 0%; Test C disease control rating (Pyricularia oryzae; tested at 40 ppm): 0%; Test E disease control rating (Botrytis cinerea; tested at 40 ppm): 0%; Test A disease control rating ([1]; tested at 40 ppm): 0%; Test D disease control rating (Phytophthora infestans; tested at 40 ppm): 0%
13 | CC(COc1ccccc1Br)NC(=O)C(C#N)C(C)C(C)(C)C (mixture of isomers) [compound 59] |  |  |  |  |  | Test B disease control rating (Puccinia recondita; tested at 40 ppm): 0%; Test C disease control rating (Pyricularia oryzae; tested at 40 ppm): 52%; Test E disease control rating (Botrytis cinerea; tested at 40 ppm): 0%; Test A disease control rating ([1]; tested at 40 ppm): 0%; Test D disease control rating (Phytophthora infestans; tested at 40 ppm): 0%
14 | C=CCC(C#N)C(=O)NC(C)C(Oc1cc(F)ccc1C#N)c1ccccc1 (mixture of isomers) [compound 284] |  |  |  |  |  | Test B disease control rating (100 = 100% disease control, 0 = no disease control) (Puccinia recondita): 0%; Test C disease control rating (100 = 100% disease control, 0 = no disease control) (Pyricularia oryzae): 99%; Test E disease control rating (100 = 100% disease control, 0 = no disease control) (Botrytis cinerea): 0%; Test A disease control rating (100 = 100% disease control, 0 = no disease control) [1]: 0%; Test D disease control rating (100 = 100% disease control, 0 = no disease control) (Phytophthora infestans): 0%
15 | CCC1(C(=O)NC(C)COc2ccccc2Cl)C(C)C1(Cl)Cl (mixture of isomers) [81a] | 0 | 0 | 55 | 0 | 0 | 
16 | C[C@H](COc1ccc(F)c(F)c1Br)NC(=O)C(C#N)C(C)(C)C (single isomer, unassigned) [187a] | 28 | 94 | 6 | 0 | 9 | 
17 | C[C@H](COc1cc(Cl)ccc1Cl)NC(=O)C(C#N)C(C)(C)C (single isomer, unassigned) [33a] | 0 | 97 | 0 | 0 | 0 | 
18 | CCC1(C(=O)NC(C)COc2c(Cl)cccc2C#N)C(C)C1(Cl)Cl (mixture of isomers) [compound 260] |  |  |  |  |  | Test B disease control rating (100 = 100% disease control, 0 = no disease control) (Puccinia recondita): 0%; Test C disease control rating (100 = 100% disease control, 0 = no disease control) (Pyricularia oryzae): 74%; Test E disease control rating (100 = 100% disease control, 0 = no disease control) (Botrytis cinerea): 83%; Test A disease control rating (100 = 100% disease control, 0 = no disease control) [1]: 0%; Test D disease control rating (100 = 100% disease control, 0 = no disease control) (Phytophthora infestans): 24%
19 | C[C@H](COc1cccc(Cl)c1)NC(=O)C(C#N)C(C)(C)C (single isomer, unassigned) [6e] | 0 | 100 | 70 | 0 | 96 | 
20 | CC(COc1cccc(F)c1C#N)NC(=O)C(C#N)C(C)C(C)(C)C (mixture of isomers) [compound 63] | 0 | 0 | 0 | 0 | 2 | 
21 | CC(COc1cccc(Cl)c1)NC(=O)C(C#N)C(C)(C)C (single isomer, unassigned) [6a] | 0 | 74 | 0 | 0 | 0 | 
22 | CC(COc1ccccc1Cl)NC(=O)C(C#N)C(C)C(C)(C)C (mixture of isomers) [compound 58] |  |  |  |  |  | Test B disease control rating (Puccinia recondita; tested at 40 ppm): 0%; Test C disease control rating (Pyricularia oryzae; tested at 40 ppm): 52%; Test E disease control rating (Botrytis cinerea; tested at 40 ppm): 0%; Test A disease control rating ([1]; tested at 40 ppm): 57%; Test D disease control rating (Phytophthora infestans; tested at 40 ppm): 0%
23 | CC(COc1cc(Br)ccc1C#N)NC(=O)C(C#N)C(C)(C)C (mixture of isomers) [compound 44] | 0 | 94 | 0 | 0 | 89 | 
